Experiments:
human GnRHR1 = biological target: T1, human GnRHR1 (Homo sapiens, UniProt P30968); assay: Inhibitory effect for the change of calcium levels in GnRH-stimulated cells (hGnRHR1#1 HEK293 cells); type: cell-based; settings: HEK293 cells stably expressing human GnRHR1; 10 nM GnRH added; FLIPR Calcium Assay Kit; read-out: IC50 (drug concentration at which 50% GnRH-stimulated intracellular calcium flux was inhibited)
T1 construct: expressed in transfected cells
T1 sequence (P30968 1-328): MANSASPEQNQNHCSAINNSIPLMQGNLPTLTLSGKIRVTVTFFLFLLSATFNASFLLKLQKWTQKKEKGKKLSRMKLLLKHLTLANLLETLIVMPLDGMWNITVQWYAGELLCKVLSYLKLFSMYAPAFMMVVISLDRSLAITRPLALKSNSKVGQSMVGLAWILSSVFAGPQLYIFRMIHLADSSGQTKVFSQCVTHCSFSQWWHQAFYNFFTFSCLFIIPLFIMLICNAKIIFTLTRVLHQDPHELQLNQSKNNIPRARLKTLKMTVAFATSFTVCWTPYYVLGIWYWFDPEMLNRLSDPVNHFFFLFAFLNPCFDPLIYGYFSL
Excerpt: 1) Cloning and Construction of the Vector Expressing Human GnRH Receptor1 (GnRHR1)
Using cDNA derived from human pituitary (BECTON DICKINSON) as a template, the DNA fragment coding 45 to 1115 by of human GnRHR1 (Accession No. L03380), which was reported by Kakar et al., was amplified by PCR method and inserted into the multi-cloning site of pcDNA3.1(+) (Invitrogen). The DNA sequence inserted was perfectly matched to the previously reported sequence.
2) Establishment of Cell Line Stably Expressing Human GnRH Receptor1 HEK293 Cells
The expression vector of human GnRHR1 gene, was digested by XhoI into a linear DNA. The linear DNA was transfected into HEK293 cells by means of lipofection (Lipofectamine2000: Invitrogen). Neomycin resistant cell lines were selected by culture in the medium containing G418 (Invitrogen) at 1 mg/mL, and then the change of calcium levels in GnRH-stimulated cells was measured by the method described below.
3) Assay of Inhibitory Effect for the Change of Calcium Levels in GnRH-Stimulated Cells
Antagonizing effect of compounds for human GnRHR1 was evaluated by depression of calcium levels in GnRH-stimulated cells. hGnRHR1#1 cells were seeded into a 96-well culture plate at a density of 1.5×10^5 cells/well and cultured for a day. […] Then, intracellular calcium levels were determined under the following condition by using FLEX STATION (Molecular Devices). […]

[1] = Assay for oral absorbability: plasma drug concentration after oral administration; type: in vivo; settings: overnight fasted male SD rats, 3 mg/kg
Description: Assay for Oral Absorbability
1) Preparation of the Samples for Measurement of the Drug Concentration After Oral Administration
As experimental animal, overnight fasted SD rats (Charles River, male, 7 weeks of age, 170-210 g) were used. Three mg of a test compound was dissolved by adding 0.2 mL of N,N-dimethylacetoamide, 9.794 mL of 0.5% aqueous methylcellulose solution and 0.006 mL of 2N NaOH, and then 0.3 mg/mL solution was prepared. The body weights of rats were measured, and the solution of the test compound was administered orally at the dose of 10 mL/kg (3 mg/kg). The oral administration was performed with gastric tube for rat and 2.5 mL syringe. The sampling times for collection of blood were 15, 30, 60, 120, 240 and 360 minutes after the oral administration. The blood was centrifuged, and the plasma was used as the sample for measurement of the drug concentration in blood.
2) Measurement of the Drug Concentration
To 0.025 mL of the plasma obtained in 1) described above, 0.1 mL of an adequate internal standard material was added according to the usual method, and then deproteinization was performed by adding 0.875 mL of acetonitrile. After centrifugation, 0.005 mL of the supernatant was injected into LC-MS/MS. The drug concentration in plasma was measured by LC-MS/MS method under the conditions as follows. […]

IC50 (human GnRHR1): 91 nM
C360 (plasma drug concentration at 360 minutes after administration) ([1]; 360 minutes): 490 ng/mL
Cmax ([1]; rat, read-out: Cmax (maximum plasma drug concentration)): 2380 ng/mL
Compound: COC(=O)N(C)CCOc1ccc(F)c(F)c1COc1ccc(F)c(-n2c(=O)[nH]c3csc(C(=O)O)c3c2=O)c1 [Example 8]

— patent US20100130514A1, “FUSED HETEROCYCLIC DERIVATIVE, PHARMACEUTICAL COMPOSITION COMPRISING THE DERIVATIVE, AND USE OF THE COMPOSITION FOR MEDICAL PURPOSES” (Kissei Pharmaceutical Co., Ltd., priority 2007, published 2010)
